Target: T1, S1P1 (Homo sapiens (Human), UniProt P21453)
Experiment: Receptor binding assay ([33P]sphingosine 1-phosphate, SPA) on S1P1 membranes
Settings: membranes from CHO cells expressing S1P1
Experimental: (§1) Receptor binding assay: Membranes were prepared from CHO cells expressing S1P1 or S1P3 for use in ligand and 35S-GTPγS binding studies. Cells were suspended in 50 mM TRIS, pH 7.4, 2 mM EDTA, 250 mM Sucrose (buffer A) and 1× Complete protease inhibitor cocktail (Roche), and disrupted at 4° C. by N2 decompression using a cell disruption bomb (Parr Instrument). Following centrifugation at 1000 RPM for 10 min at 4° C., the supernatant was suspended in buffer A and centrifuged again at 19000 RPM for 60 min at 4° C. The pellet was then suspended in 10 mM HEPES, pH 7.4, 1 mM EDTA, 250 mM Sucrose (Buffer B), and 1× Complete EDTA-free protease inhibitor cocktail and homogenized using a potter. Membranes were flash frozen in liquid N2 and stored at −80° C. [33P]sphingosine 1-phosphate (3000 Ci/mmol; American Radiolabeled Chemicals, Inc.) was added to test compounds in DMSO. Membranes and WGA SPA beads (GE Healthcare) were added to give a final volume of 100 μl in 96-well plates with assay concentrations of 25 μM or 10 μM [33P]sphingosine 1-phosphate (respectively for S1P1 or S1P3), 50 mM HEPES, pH 7.5, 5 mM MgCl2, 100 mM NaCl, 0.4% fatty acid-free BSA, 1-5 μg/well of proteins and 100 μg/well of WGA SPA beads. Binding was performed for 60 min at RT on a shaker and bound radioactivity was measured on a PerkinElmer 1450 MicroBeta counter. Specific binding was calculated by subtracting remaining radioactivity in the presence of 1000-fold excess of unlabeled S1P. Binding data were analyzed using the GraphPad Prism program.

T1 sequence (P21453 whole entry, species assumed): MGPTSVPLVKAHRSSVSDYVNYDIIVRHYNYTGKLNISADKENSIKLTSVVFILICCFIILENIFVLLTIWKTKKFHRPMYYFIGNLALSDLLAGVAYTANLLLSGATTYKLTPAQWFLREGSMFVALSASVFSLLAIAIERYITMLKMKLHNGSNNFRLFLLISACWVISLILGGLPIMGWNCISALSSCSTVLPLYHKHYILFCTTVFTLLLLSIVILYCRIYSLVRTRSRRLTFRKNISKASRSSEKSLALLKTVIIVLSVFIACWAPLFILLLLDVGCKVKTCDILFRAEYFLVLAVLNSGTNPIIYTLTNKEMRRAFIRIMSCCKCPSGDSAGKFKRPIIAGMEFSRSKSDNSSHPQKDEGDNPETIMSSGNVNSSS

In order of falling Ki:
1. COCc1cc(-c2nc(-c3ccc4c(c3)CCN(CCC(=O)O)C4)no2)ccc1-c1ccccc1C [Compound 40, 3-{6-[5-(2-Methoxymethyl-2′-methyl-biphenyl-4-yl)-[1,2,4]oxadiazol-3-yl]-3,4-dihydro-1H-isoquinolin-2-yl}-propionic acid]  1.1 nM
2. CC1CCCCN1c1ccc(-c2nc(-c3ccc4c(c3)CN(CC(=O)O)CC4)no2)cc1C(F)(F)F (stereo not shown) [Compound 38, [7-{5-[4-(2-methylpiperidin-1-yl)-3-(trifluoromethyl)phenyl]-1,2,4-oxadiazol-3-yl}-3,4-dihydroisoquinolin-2(1H)-yl]acetic acid]  0.8 nM
3. CC1CCCCN1c1ccc(-c2nc(-c3ccc4c(c3)CN(CCC(=O)O)CC4)no2)cc1C(F)(F)F (stereo not shown) [Compound 37, 3-[7-{5-[4-(2-methylpiperidin-1-yl)-3-(trifluoromethyl)phenyl]-1,2,4-oxadiazol-3-yl}-3,4-dihydroisoquinolin-2(1H)-yl]propanoic acid]  0.75 nM
4. Cc1ccccc1-c1ccc(-c2nc(-c3ccc4c(c3)CN(CCC(=O)O)CC4)no2)cc1C(F)(F)F [Compound 39, 3-[7-{5-[2′-methyl-2-(trifluoromethyl)biphenyl-4-yl]-1,2,4-oxadiazol-3-yl}-3,4-dihydroisoquinolin-2(1H)-yl]propanoic acid]  0.6 nM
5. COCc1cc(-c2nc(-c3ccc4c(c3)CN(CCC(=O)O)CC4)no2)ccc1-c1ccccc1C [Compound 35, 3-[7-{5-[2-(methoxymethyl)-2′-methylbiphenyl-4-yl]-1,2,4-oxadiazol-3-yl}-3,4-dihydroisoquinolin-2(1H)-yl]propanoic acid]  0.23 nM

Target: T1, S1P1
Experiment: 35S-GTPγS binding, S1P1 membranes
Assay type: biochemical
Settings: membranes from CHO cells expressing S1P1
Experimental: as §1, with “Membranes and WGA SPA beads (GE Healthcare) were added to give a final volume of 100 μl in 96-well plates with assay concentrations of 25 μM or 10 μM [33P]sphingosine 1-phosphate (respectively for S1P1 or S1P3), 50 mM HEPES, pH 7.5, 5 mM MgCl2, 100 mM NaCl, 0.4% fatty acid-free BSA, 1-5 μg/well of proteins and 100 μg/well of WGA SPA beads. Binding was performed for 60 min at RT on a shaker and bound radioactivity was measured on a PerkinElmer 1450 MicroBeta counter.” left out
Measurements of 35S-GTPγS Binding:
After 60 min incubation at 30° C. on a shaker, plates were centrifuged for 10 min at 2000 RPM. […] Triplicate samples were averaged and expressed as % response relative to S1P activation in absence of compound (n=2).

Going from `COCc1cc(-c2nc(-c3cc(C)c4[nH]cnc4c3)no2)ccc1-c1ccccc1C` [Compound 26, 5-{5-[2-(methoxymethyl)-2′-methylbiphenyl-4-yl]-1,2,4-oxadiazol-3-yl}-7-methyl-1H-benzimidazole] to `COCc1cc(-c2nc(-c3cc(F)c4[nH]cnc4c3)no2)ccc1-c1ccccc1C` [Compound 9, 7-fluoro-5-{5-[2-(methoxymethyl)-2′-methylbiphenyl-4-yl]-1,2,4-oxadiazol-3-yl}-1H-benzimidazole], the EC50 falls from 38.1 nM to 0.5 nM (76-fold).

First: COCc1cc(-c2nc(-c3ccc4[nH]cnc4c3)no2)ccc1N1CCCCC1C (stereo not shown) [Compound 6, 5-{5-[3-(methoxymethyl)-4-(2-methylpiperidin-1-yl)phenyl]-1,2,4-oxadiazol-3-yl}-1H-benzimidazole]
Second: CC1CCCCN1c1ccc(-c2nc(-c3ccc4[nH]cnc4c3)no2)cc1C#N (stereo not shown) [Compound 2, 5-[3-(1H-benzimidazol-5-yl)-1,2,4-oxadiazol-5-yl]-2-(2-methylpiperidin-1-yl)benzonitrile]
The EC50 of the first is 4-fold lower: 2.5 nM for the first, 10 nM for the second. The first is the more potent here.

Going from `COc1cc2[nH]c(C(=O)O)cc2cc1-c1noc(-c2ccc(N3CCCCC3C)c(C(F)(F)F)c2)n1` (stereo not shown) [Compound 21, 6-methoxy-5-{5-[4-(2-methylpiperidin-1-yl)-3-(trifluoromethyl)phenyl]-1,2,4-oxadiazol-3-yl}-1H-indole-2-carboxylic acid] to `Cc1cc(-c2noc(-c3ccc(N4CCCCC4C)c(C(F)(F)F)c3)n2)cc2nc[nH]c12` (stereo not shown) [Compound 8, 7-methyl-5-{5-[4-(2-methylpiperidin-1-yl)-3-(trifluoromethyl)phenyl]-1,2,4-oxadiazol-3-yl}-1H-benzimidazole], the EC50 falls from 468 nM to 7 nM (67-fold).

First: C[C@@H]1CCCCN1c1ccc(-c2nc(-c3ccc4[nH]cnc4c3)no2)cc1C(F)(F)F [Compound 28, 5-{5-[4-[(2R)-2-methylpiperidin-1-yl]-3-(trifluoromethyl)phenyl]-1,2,4-oxadiazol-3-yl}-1H-benzimidazole]
Second: C[C@H]1CCCCN1c1ccc(-c2nc(-c3ccc4[nH]cnc4c3)no2)cc1C(F)(F)F [Compound 29, 5-{5-[4-[(2S)-2-methylpiperidin-1-yl]-3-(trifluoromethyl)phenyl]-1,2,4-oxadiazol-3-yl}-1H-benzimidazole]
The EC50 of the first is 7.7-fold higher: 23 nM for the first, 3 nM for the second.

First: CC1CCCCN1c1ccc(-c2nc(-c3ccc4c(ccn4C)c3)no2)cc1[N+](=O)[O-] (stereo not shown) [Compound 19, 1-methyl-5-{5-[4-(2-methylpiperidin-1-yl)-3-nitrophenyl]-1,2,4-oxadiazol-3-yl}-1H-indole]
Second: CC1CCCCN1c1ccc(-c2nc(-c3ccc4[nH]ccc4c3)no2)cc1C#N (stereo not shown) [Compound 23, 5-[3-(1H-indol-5-yl)-1,2,4-oxadiazol-5-yl]-2-(2-methylpiperidin-1-yl)benzonitrile]
The EC50 of the first is 30-fold higher: 1270 nM for the first, 42 nM for the second.

First: Cc1ccccc1-c1ccc(-c2nc(-c3ccc4c(ccn4CC(=O)O)c3)no2)cc1C [Compound 18, {5-[5-(2,2′-dimethylbiphenyl-4-yl)-1,2,4-oxadiazol-3-yl]-1H-indol-1-yl}acetic acid]
Second: Cc1ccccc1-c1ccc(-c2nc(-c3ccc4c(ccn4C)c3)no2)cc1C [Compound 17, 5-[5-(2,2′-dimethylbiphenyl-4-yl)-1,2,4-oxadiazol-3-yl]-1-methyl-1H-indole]
The EC50 of the first is 2.3-fold higher: 3030 nM for the first, 1330 nM for the second. The second is the more potent here.

Going from `CCc1ccccc1-c1ccc(-c2nc(-c3ccc4c(c3)CN(CCC(=O)O)CC4)no2)cc1COC` [Compound 31, 3-[7-{5-[2′-ethyl-2-(methoxymethyl)biphenyl-4-yl]-1,2,4-oxadiazol-3-yl}-3,4-dihydroisoquinolin-2(1H)-yl]propanoic acid] to `CCc1ccccc1-c1ccc(-c2nc(-c3ccc4c(c3)CN(CC(=O)O)CC4)no2)cc1COC` [Compound 30, [7-{5-[2′-ethyl-2-(methoxymethyl)biphenyl-4-yl]-1,2,4-oxadiazol-3-yl}-3,4-dihydroisoquinolin-2(1H)-yl]acetic acid], the EC50 rises from 2.52 nM to 4.39 nM (1.7-fold). The first is the more potent here.

Going from `CCC1CCCCN1c1ccc(-c2nc(-c3ccc4c(c3)CN(CCC(=O)O)CC4)no2)cc1COC` (stereo not shown) [Compound 33, 3-[7-{5-[4-(2-ethylpiperidin-1-yl)-3-(methoxymethyl)phenyl]-1,2,4-oxadiazol-3-yl}-3,4-dihydroisoquinolin-2(1H)-yl]propanoic acid] to `CCC1CCCCN1c1ccc(-c2nc(-c3ccc4c(c3)CN(CC(=O)O)CC4)no2)cc1COC` (stereo not shown) [Compound 34, [7-{5-[4-(2-ethylpiperidin-1-yl)-3-(methoxymethyl)phenyl]-1,2,4-oxadiazol-3-yl}-3,4-dihydroisoquinolin-2(1H)-yl]acetic acid], the EC50 rises from 0.89 nM to 1.93 nM (2.2-fold). The first is the more potent here.

Going from `Cc1cc(-c2nc(-c3ccc4c(c3)CNCC4)no2)cnc1N1CCCC1C` (stereo not shown) [Compound 14, 7-{5-[5-methyl-6-(2-methylpyrrolidin-1-yl)pyridin-3-yl]-1,2,4-oxadiazol-3-yl}-1,2,3,4-tetrahydroisoquinoline] to `Cc1cc(-c2nc(-c3ccc4c(c3)CN(C(=O)OC(C)(C)C)CC4)no2)cnc1N1CCCC1C` (stereo not shown) [Compound 13, tert-butyl 7-{5-[5-methyl-6-(2-methylpyrrolidin-1-yl)pyridin-3-yl]-1,2,4-oxadiazol-3-yl}-3,4-dihydroisoquinoline-2(1H)-carboxylate], the EC50 rises from 64 nM to greater than 20000 nM.

Going from `COCc1cc(-c2nc(-c3ccc4cc(C(=O)O)[nH]c4c3)no2)ccc1-c1ccccc1C` [Compound 32, 6-{5-[2-(methoxymethyl)-2′-methylbiphenyl-4-yl]-1,2,4-oxadiazol-3-yl}-1H-indole-2-carboxylic acid] to `CC1CCCCN1c1ccc(-c2nc(-c3cc(F)c4[nH]cnc4c3)no2)cc1C(F)(F)F` (stereo not shown) [Compound 7, 7-fluoro-5-{5-[4-(2-methylpiperidin-1-yl)-3-(trifluoromethyl)phenyl]-1,2,4-oxadiazol-3-yl}-1H-benzimidazole], the EC50 falls from 30.8 nM to 14 nM (2.2-fold). The second is the more potent here.

Source: patent US8741923B2, “Oxadiazole fused heterocyclic derivatives useful for the treatment of multiple sclerosis” (Merck Serono SA, priority 2008, dated 2014)
